Measured values published in ChEMBL document CHEMBL4819053, “Alkyne-Bridged α-Conotoxin Vc1.1 Potently Reverses Mechanical Allodynia in Neuropathic Pain Models” (J Med Chem, 2021).
Active and inactive are the calls of the source.

Tested on: Rattus norvegicus
Experiment: Antiallodynic activity in Sprague-Dawley rat model of neuropathic mechanical allodynia assessed as increase in paw withdrawal threshold at 100 mg/kg, po measured at 2 to 6 hrs post last dose by von Frey test
Type: functional, organism-based
Conditions: time 2-6 hrs

## NCC1(CC(=O)O)CCCCC1
  Activity: Active
